# Measured values published in paper PMC5560747, “Computational-experimental approach to drug-target interaction mapping: A case study on kinase inhibitors” (PLoS Computational Biology, 2017).
# Key:
# [1] = target: T1, RPS6KB1 (Homo sapiens, UniProt P23443); assay: ADP-Glo Kinase Assay, tivozanib off-target testing; type: biochemical; settings: read-out: Experimental validation pIC50 (converted)
# T1 construct: purchased SignalChem R21-10H-10
# Experimental: The kinase inhibitors were dissolved to 1X Kinase Buffer with 5% DMSO by transferring 200nL of the buffer using ECHO525 Liquid handler (Labcyte). […] The dissolved kinases and 2.5X kinase buffer controls were transferred at 400nL using ECHO525. […] The 2.5X ATP/substrate working stocks were transferred at 400nL using ECHO525.
# For the ADP detection, 1 μl ADP-Glo reagent was dispensed (Thermo Scientific Multidrop Combi nL). […] Next, 2 μl kinase detection reagent was dispensed with Thermo Scientific Multidrop Combi nL.
# Kinase assay, kinase dilution and substrate buffers were as indicated by the manufacturer (Promega). The assays were performed in the same way as with the kinases from the Kinase Selectivity Profiling System + ADP-Glo Assay kits (see previous section). All the assays were done in three individual experiments, each having three replicates.
# IC50 values from all the experiments were obtained with GraphPad Prism 7 (GraphPad Software, Inc. California, USA) using inhibitor vs. response—variable slope (four parameters) analysis. […] X-axis scale was set to log10.
# [2] = target: T1, RPS6KB1; set-up: method as in Gao et al. [42]; settings: ref Gao et al. [42], cited from earlier work
# [3] = test system: FMS; set-up: method as in Gao et al. [42]; settings: ref Gao et al. [42], cited from earlier work
# [4] = test system: Aurora B; set-up: method as in Gao et al. [42]; settings: ref Gao et al. [42], cited from earlier work
# [5] = target: SYK (Homo sapiens, UniProt P43405); set-up: method as in Gao et al. [42]; settings: ref Gao et al. [42]; cited from earlier work
# [6] = test system: PKCa; set-up: method as in Gao et al. [42]; settings: ref Gao et al. [42], cited from earlier work
# [7] = target: T2, Aurora A (Homo sapiens, UniProt O14965); set-up: method as in Gao et al. [42]; settings: ref Gao et al. [42], cited from earlier work
# T2 construct: purchased SignalChem A28-18G-10
# T2 sequence (O14965 1-403): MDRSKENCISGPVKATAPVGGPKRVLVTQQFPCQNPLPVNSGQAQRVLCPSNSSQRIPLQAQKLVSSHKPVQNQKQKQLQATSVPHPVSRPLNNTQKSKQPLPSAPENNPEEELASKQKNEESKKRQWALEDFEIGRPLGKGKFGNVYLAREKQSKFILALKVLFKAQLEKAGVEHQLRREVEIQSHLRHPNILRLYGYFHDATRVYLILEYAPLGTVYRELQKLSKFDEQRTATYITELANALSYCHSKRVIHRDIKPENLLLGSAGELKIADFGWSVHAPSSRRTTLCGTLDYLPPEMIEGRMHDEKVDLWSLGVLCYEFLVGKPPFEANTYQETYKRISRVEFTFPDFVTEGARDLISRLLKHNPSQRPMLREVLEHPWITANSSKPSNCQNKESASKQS
# [8] = target: BRK (Homo sapiens, UniProt Q13882); set-up: method as in Gao et al. [42]; settings: ref Gao et al. [42], cited from earlier work
# BRK, sequence (Q13882 whole entry): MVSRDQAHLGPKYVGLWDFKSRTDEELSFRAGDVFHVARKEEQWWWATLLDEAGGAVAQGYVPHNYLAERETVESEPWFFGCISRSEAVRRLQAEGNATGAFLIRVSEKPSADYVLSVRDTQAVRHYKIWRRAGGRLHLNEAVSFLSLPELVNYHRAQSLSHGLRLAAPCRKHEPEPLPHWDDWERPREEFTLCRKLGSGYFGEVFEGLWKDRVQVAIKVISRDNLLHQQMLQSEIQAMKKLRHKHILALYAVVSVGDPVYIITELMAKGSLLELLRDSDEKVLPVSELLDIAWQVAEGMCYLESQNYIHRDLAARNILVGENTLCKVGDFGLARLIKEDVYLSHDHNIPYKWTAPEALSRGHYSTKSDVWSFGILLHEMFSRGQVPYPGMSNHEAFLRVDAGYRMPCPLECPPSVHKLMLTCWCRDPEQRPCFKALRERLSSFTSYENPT
# [9] = target: PYK2 (Homo sapiens, UniProt Q14289); set-up: method as in Gao et al. [42]; settings: ref Gao et al. [42], cited from earlier work
# PYK2, sequence (Q14289 whole entry): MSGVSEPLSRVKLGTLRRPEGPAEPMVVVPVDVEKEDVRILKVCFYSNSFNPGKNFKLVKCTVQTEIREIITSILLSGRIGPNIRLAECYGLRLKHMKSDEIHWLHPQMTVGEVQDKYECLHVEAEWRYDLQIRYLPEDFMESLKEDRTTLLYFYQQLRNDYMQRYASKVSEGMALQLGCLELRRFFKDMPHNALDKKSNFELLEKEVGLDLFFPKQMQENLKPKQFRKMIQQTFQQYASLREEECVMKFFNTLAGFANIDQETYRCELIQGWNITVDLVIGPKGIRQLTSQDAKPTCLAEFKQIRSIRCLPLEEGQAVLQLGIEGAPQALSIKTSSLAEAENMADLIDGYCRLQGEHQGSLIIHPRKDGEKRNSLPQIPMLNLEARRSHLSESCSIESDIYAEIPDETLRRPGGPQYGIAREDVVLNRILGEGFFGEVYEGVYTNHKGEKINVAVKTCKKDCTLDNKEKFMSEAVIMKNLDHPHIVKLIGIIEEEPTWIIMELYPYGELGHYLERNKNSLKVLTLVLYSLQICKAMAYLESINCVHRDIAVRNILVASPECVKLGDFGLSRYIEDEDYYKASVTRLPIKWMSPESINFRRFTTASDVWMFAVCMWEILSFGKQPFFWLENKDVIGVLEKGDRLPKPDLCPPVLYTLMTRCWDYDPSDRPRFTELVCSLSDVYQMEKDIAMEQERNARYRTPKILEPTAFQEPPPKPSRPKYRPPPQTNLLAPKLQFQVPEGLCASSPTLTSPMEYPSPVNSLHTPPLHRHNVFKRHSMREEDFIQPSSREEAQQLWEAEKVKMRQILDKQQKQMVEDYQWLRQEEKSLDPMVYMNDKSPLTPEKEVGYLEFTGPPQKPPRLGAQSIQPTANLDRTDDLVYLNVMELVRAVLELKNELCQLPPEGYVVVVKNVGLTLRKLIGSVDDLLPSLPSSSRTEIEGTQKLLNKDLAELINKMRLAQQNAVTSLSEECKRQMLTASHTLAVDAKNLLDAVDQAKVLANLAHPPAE
# [10] = test system: STK24; set-up: method as in Gao et al. [42]; settings: ref Gao et al. [42], cited from earlier work
# [11] = test system: GSK3b; set-up: method as in Gao et al. [42]; settings: ref Gao et al. [42], cited from earlier work
# [12] = test system: CHK2; set-up: method as in Gao et al. [42]; settings: ref Gao et al. [42], cited from earlier work
# [13] = test system: PDK1; set-up: method as in Gao et al. [42]; settings: ref Gao et al. [42], cited from earlier work
# [14] = test system: IRAK4; set-up: method as in Gao et al. [42]; settings: ref Gao et al. [42], cited from earlier work
# [15] = test system: PKN2; set-up: method as in Gao et al. [42]; settings: ref Gao et al. [42], cited from earlier work
# [16] = test system: RSK2; set-up: method as in Gao et al. [42]; settings: ref Gao et al. [42], cited from earlier work
# [17] = test system: PAK4; set-up: method as in Gao et al. [42]; settings: ref Gao et al. [42], cited from earlier work
# [18] = test system: CAMK2g; set-up: method as in Gao et al. [42]; settings: ref Gao et al. [42], cited from earlier work
# [19] = test system: KIT; set-up: method as in Gao et al. [42]; settings: ref Gao et al. [42], cited from earlier work
# [20] = test system: PLK1; set-up: method as in Gao et al. [42]; settings: ref Gao et al. [42]; cited from earlier work
# [21] = test system: EPHA2; set-up: method as in Gao et al. [42]; settings: ref Gao et al. [42], cited from earlier work
# [22] = test system: MAPK13; set-up: method as in Gao et al. [42]; settings: ref Gao et al. [42], cited from earlier work
# [23] = test system: MAP4K2; set-up: method as in Gao et al. [42]; settings: ref Gao et al. [42], cited from earlier work
# [24] = test system: CDC42BPA; set-up: method as in Gao et al. [42]; settings: ref Gao et al. [42], cited from earlier work
# [25] = test system: BRSK1; set-up: method as in Gao et al. [42]; settings: ref Gao et al. [42], cited from earlier work
# [26] = test system: CDK1; set-up: method as in Gao et al. [42]; settings: ref Gao et al. [42], cited from earlier work
# [27] = test system: CSNK1G2; set-up: method as in Gao et al. [42]; settings: ref Gao et al. [42], cited from earlier work
# [28] = test system: CSNK1G1; set-up: method as in Gao et al. [42]; settings: ref Gao et al. [42], cited from earlier work
# [29] = test system: MAPKAPK3; set-up: method as in Gao et al. [42]; settings: ref Gao et al. [42], cited from earlier work
# T1 sequence (P23443 whole entry): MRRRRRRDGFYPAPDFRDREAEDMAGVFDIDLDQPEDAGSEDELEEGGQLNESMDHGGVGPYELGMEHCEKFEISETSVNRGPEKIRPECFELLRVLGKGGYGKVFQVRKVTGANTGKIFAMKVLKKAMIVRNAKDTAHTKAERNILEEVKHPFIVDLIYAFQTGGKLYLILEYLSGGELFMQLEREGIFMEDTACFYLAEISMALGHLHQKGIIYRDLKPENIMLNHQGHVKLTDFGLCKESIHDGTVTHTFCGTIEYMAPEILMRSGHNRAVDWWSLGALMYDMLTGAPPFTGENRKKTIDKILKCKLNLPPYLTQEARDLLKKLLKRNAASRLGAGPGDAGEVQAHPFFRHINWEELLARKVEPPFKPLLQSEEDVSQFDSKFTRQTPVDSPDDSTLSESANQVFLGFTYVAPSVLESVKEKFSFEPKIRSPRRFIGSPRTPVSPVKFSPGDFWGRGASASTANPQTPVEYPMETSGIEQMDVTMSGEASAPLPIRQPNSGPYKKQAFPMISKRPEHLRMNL
smiles,measurement,setting,value
"COc1cc2nccc(Oc3ccc(NC(=O)Nc4cc(C)on4)c(Cl)c3)c2cc1OC [TIVOZANIB, Tivozanib]",IC50,[1],> 12.5 µM
same,Gao et al. % of activity remaining at 1 µM,[2]; 1 µM,76%
same,Gao et al. % of activity remaining at 10 µM,[2]; 10 µM,53%
same,Gao et al. % of activity remaining at 1 µM,[3]; 1 µM,0%
same,Gao et al. % of activity remaining at 10 µM,[3]; 10 µM,0%
same,Gao et al. % of activity remaining at 1 µM,[4]; 1 µM,3%
same,Gao et al. % of activity remaining at 10 µM,[4]; 10 µM,1%
same,Gao et al. % of activity remaining at 10 µM,[5],73%
same,Gao et al. % of activity remaining at 1 µM,[6]; 1 µM,108%
same,Gao et al. % of activity remaining at 10 µM,[6]; 10 µM,101%
same,Gao et al. % of activity remaining at 1 µM,[7]; 1 µM,7%
same,Gao et al. % of activity remaining at 10 µM,[7]; 10 µM,7%
same,Gao et al. % of activity remaining at 1 µM,[8]; 1 µM,2%
same,Gao et al. % of activity remaining at 10 µM,[8]; 10 µM,-1%
same,Gao et al. % of activity remaining at 1 µM,[9]; 1 µM,34%
same,Gao et al. % of activity remaining at 10 µM,[9]; 10 µM,8%
same,Gao et al. % of activity remaining at 1 µM,[10]; 1 µM,118%
same,Gao et al. % of activity remaining at 10 µM,[10]; 10 µM,78%
same,Gao et al. % of activity remaining at 1 µM,[11]; 1 µM,104%
same,Gao et al. % of activity remaining at 10 µM,[11]; 10 µM,94%
same,Gao et al. % of activity remaining at 1 µM,[12]; 1 µM,79%
same,Gao et al. % of activity remaining at 10 µM,[12]; 10 µM,30%
same,Gao et al. % of activity remaining at 1 µM,[13]; 1 µM,110%
same,Gao et al. % of activity remaining at 10 µM,[13]; 10 µM,116%
same,Gao et al. % of activity remaining at 1 µM,[14]; 1 µM,85%
same,Gao et al. % of activity remaining at 10 µM,[14]; 10 µM,47%
same,Gao et al. % of activity remaining at 1 µM,[15]; 1 µM,97%
same,Gao et al. % of activity remaining at 10 µM,[15]; 10 µM,108%
same,Gao et al. % of activity remaining at 1 µM,[16]; 1 µM,60%
same,Gao et al. % of activity remaining at 10 µM,[16]; 10 µM,35%
same,Gao et al. % of activity remaining at 1 µM,[17]; 1 µM,99%
same,Gao et al. % of activity remaining at 10 µM,[17]; 10 µM,92%
same,Gao et al. % of activity remaining at 1 µM,[18]; 1 µM,108%
same,Gao et al. % of activity remaining at 10 µM,[18]; 10 µM,70%
same,Gao et al. % of activity remaining at 1 µM,[19]; 1 µM,3%
same,Gao et al. % of activity remaining at 10 µM,[19]; 10 µM,0%
same,Gao et al. % of activity remaining at 10 µM,[20],75%
same,Gao et al. % of activity remaining at 1 µM,[21]; 1 µM,-3%
same,Gao et al. % of activity remaining at 10 µM,[21]; 10 µM,-3%
same,Gao et al. % of activity remaining at 1 µM,[22]; 1 µM,114%
same,Gao et al. % of activity remaining at 10 µM,[22]; 10 µM,97%
same,Gao et al. % of activity remaining at 1 µM,[23]; 1 µM,47%
same,Gao et al. % of activity remaining at 10 µM,[23]; 10 µM,17%
same,Gao et al. % of activity remaining at 1 µM,[24]; 1 µM,116%
same,Gao et al. % of activity remaining at 10 µM,[24]; 10 µM,102%
same,Gao et al. % of activity remaining at 1 µM,[25]; 1 µM,65%
same,Gao et al. % of activity remaining at 10 µM,[25]; 10 µM,46%
same,Gao et al. % of activity remaining at 1 µM,[26]; 1 µM,100%
same,Gao et al. % of activity remaining at 10 µM,[26]; 10 µM,94%
same,Gao et al. % of activity remaining at 1 µM,[27]; 1 µM,80%
same,Gao et al. % of activity remaining at 10 µM,[27]; 10 µM,73%
same,Gao et al. % of activity remaining at 1 µM,[28]; 1 µM,89%
same,Gao et al. % of activity remaining at 10 µM,[28]; 10 µM,57%
same,Gao et al. % of activity remaining at 1 µM,[29]; 1 µM,116%
same,Gao et al. % of activity remaining at 10 µM,[29]; 10 µM,67%
